Laboratory results as given in patent US9012446B2, “Amino-oxazines and amino-dihydrothiazine compounds as beta-secretase modulators and methods of use” (Amgen Inc., priority 2010, dated 2015).
Like-named read-outs stand apart in the source and are kept apart here.

Columns and labels:
[1] = tested on: Aβ40; assay: In vitro BACE cell-based assay (Aβ40 sandwich ELISA, cells stably expressing APP)
Method: In Vitro BACE Cell-Based Assay […] Cells stably expressing Amyloid Precursor Protein (APP) were plated at a density of 40K cells/well in 96 well plates (Costar). The cells were cultivated for 24 hours at 37° C. and 5% CO2 in DMEM supplemented with 10% FBS. The test compounds were then added to cells in 10-point dose response concentrations with the starting concentration being either 100 μM or 10 μM. The compounds were diluted from stock solutions in DMSO and the final DMSO concentration of the test compounds on cells was 0.1%. […] The IC50 of the compound was calculated from the percent of control or percent inhibition of Aβ40 as a function of the concentration of the test compound. The sandwich ELISA to detect Aβ40 was performed in 96 well microtiter plates, which were pre-treated with goat anti-rabbit IgG (Pierce). […] The optimal concentration for the pAb40 antibody was 3 μg/ml in Superblock/TBS (Pierce) that was supplemented with 0.05% Tween 20 (Sigma). […] Cellular supernatants were incubated with the capture antibody for 3 h at 4° C., followed by 3 wash steps in TBS-tween (0.05%). The detecting antibody incubation was for 2 h at 4° C., again followed by the wash steps as described previously. The final readout of the ELISA is Time-Resolved Fluorescence (counts per minute) using Delfia reagents Streptavidin-Europium and Enhancement solutions (Perkin Elmer) and the Victor 2 multilabel counter (Perkin Elmer).

[2] = target: BACE (Homo sapiens, UniProt P56817); assay: In vitro enzymatic BACE FRET assay; type: biochemical; conditions: average IC50, enzyme assay; read-out: BACE 1 FRET assay
Sequence of BACE (P56817 46-501, species assumed): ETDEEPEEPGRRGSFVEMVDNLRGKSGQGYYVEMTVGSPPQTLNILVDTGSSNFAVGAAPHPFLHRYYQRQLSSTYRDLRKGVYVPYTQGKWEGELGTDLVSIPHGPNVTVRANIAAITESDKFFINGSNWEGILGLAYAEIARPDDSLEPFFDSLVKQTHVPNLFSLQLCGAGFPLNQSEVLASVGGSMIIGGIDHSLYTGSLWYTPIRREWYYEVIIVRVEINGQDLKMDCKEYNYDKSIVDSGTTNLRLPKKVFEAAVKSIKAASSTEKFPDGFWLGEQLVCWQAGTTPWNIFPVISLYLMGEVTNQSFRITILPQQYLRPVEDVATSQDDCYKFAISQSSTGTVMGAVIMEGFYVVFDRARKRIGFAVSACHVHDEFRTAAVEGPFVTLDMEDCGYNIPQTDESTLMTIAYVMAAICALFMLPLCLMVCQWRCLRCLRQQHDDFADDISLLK
Method: In Vitro Enzymatic BACE FRET (Fluorescence Resonance Energy Transfer) Assay (Enzyme Assay Data in the Example Table I) The assay buffer used in this screen is 0.05 M acetate, pH 4.2, 10% DMSO final, 100 uM genapol (which is a nonionic detergent, below its Critical Micelle Concentration). The beta secretase enzyme (0.2 nM) is pre-incubated for one hour with inhibitors, typically in about 1 uL of DMSO according to a serial dilution, are added thereto. This assay is effectively started by the addition of FRET substrate (50 nM) and the combination is incubated for one hour. The FRET assay is terminated with by addition of Tris buffer, which raises the pH to neutrality, and the fluorescence is determined. The FRET substrate is a peptide with commercially available fluorophore and quencher, on opposite sides of the BACE cleavage site. Proteolytic cleavage of the FRET substrate releases quenching of fluorescence (excitation 488 nm and emission […]).

[3] = Homo sapiens, HEK293, average IC50, cell assay, HEK cells
[4] = Homo sapiens, HEK293, average IC50, read-out: HEK cell assay
[5] = average IC50, read-out: HEK cell assay

IC50 [1, 3] [nM]	IC50 [2] [nM]	IC50 [1, 4] [nM]	IC50 [1, 5] [nM]	Structure (SMILES)
1.5	0.5			CC#Cc1cncc(-c2ccc3c(c2)[C@@]2(COCC(N)=N2)c2cc(C4=CCCOC4)cc(F)c2O3)c1 [Example 66, (S)-2′-(5,6-dihydro-2H-pyran-3-yl)-4′-fluoro-7′-(5-(prop-1-ynyl)pyridin-3-yl)-2,6-dihydrospiro[[1,4]oxazine-3,9′-xanthen]-5-amine]
	0.8	0.5		NC1=N[C@@]2(CCO1)c1cc(-c3cncc(F)c3)ccc1Oc1c2cc(C2=CCCOC2)nc1F [compound 236]
	473	937		NC1=N[C@]2(CCS1)c1cc(-c3cccnc3F)ccc1Oc1cnc(C3=CCOCC3)cc12 [compound 194]
	1.2	16		NC1=N[C@@]2(COC1)c1cc(-c3cccnc3F)ccc1Oc1c2cc(Cl)nc1F [compound 242]
	462	434		NC1=N[C@]2(CCS1)c1cc(-c3cccnc3F)ccc1Oc1c(F)cc(C3=CCCOC3)cc12 [compound 190]
24.2	20.6			NC1=N[C@@]2(CCO1)c1cc(-c3cccnc3F)ccc1Oc1c2cc(-c2cccnc2F)nc1F [compound 105]
	87.3		374	COc1cc(F)c2c(c1)[C@@]1(CCSC(N)=N1)c1cc(-c3cccnc3F)ccc1O2 (racemic) [compound 191]
198	332			CC1(C#Cc2cnc3c(c2)[C@@]2(COCC(N)=N2)c2cc(-c4cccnc4F)ccc2O3)COC1 [compound 88]
	0.5	0.7		NC1=N[C@@]2(COC1)c1cc(-c3cccnc3F)ccc1Oc1c2cc(N2CCOCC2)nc1F [Example 58, (S)-1-fluoro-7-(2-fluoropyridin-3-yl)-3-morpholino-2′,6′-dihydrospiro[chromeno[2,3-c]pyridine-5,3′-[1,4]oxazin]-5′-amine 2,2,2-trifluoroacetate]
	149	127		NC1=N[C@]2(CCO1)c1cc(-c3cncc(F)c3)ccc1Oc1c2cc(C2=CCOCC2)nc1F [compound 229]
	6670	3560		NC1=N[C@]2(CCO1)c1cc(-c3cccnc3F)ccc1Oc1ncc(-c3ccnc(F)c3)cc12 [compound 267]
	0.6	0.9		NC1=N[C@@]2(CCO1)c1cc(-c3cccnc3F)ccc1Oc1c2cc(-c2cccnc2)nc1F [Example 241, (S)-1-fluoro-7-(2-fluoropyridin-3-yl)-3-(pyridin-3-yl)-5′,6′-dihydrospiro[chromeno[2,3-c]pyridine-5,4′-[1,3]oxazin]-2′-amine]
	1370	1160		CC(C)(F)COc1cc(F)c2c(c1)[C@@]1(CCOC(N)=N1)c1cc(-c3cccnc3F)ccc1O2 [compound 181]
5.8	3.9			NC1=N[C@@]2(COC1)c1cc(-c3cccnc3F)ccc1Oc1cnc([C@H]3CCCOC3)cc12 [compound 80]
10.3	13			NC1=NC2(CCO1)c1cc(-c3cccnc3)ccc1Oc1cnc(-c3cccnc3)cc12 (centres unmarked) [compound 150, 3,7-di-3-pyridinyl-5′,6′-dihydrospiro[chromeno[2,3-c]pyridine-5,4′-[1,3]oxazin]-2′-amine]
1.2	0.4			NC1=N[C@@]2(COC1)c1cc(-c3cccnc3F)ccc1Oc1cnc(C3=CCOCC3)cc12 [compound 71]
	293	171		NC1=N[C@]2(CCO1)c1cc(-c3cccnc3F)ccc1Oc1c2cc(C2=CCCOC2)nc1F [compound 238]
	11.5		21.3	NC1=N[C@]2(CO[C@@H]1C1CCOCC1)c1cc(-c3cccnc3F)ccc1Oc1cnc(Cl)cc12 (racemic) [compound 207]
	2.3	2.8		NC1=N[C@@]2(COC1)c1cc(-c3cc(F)ccc3F)ccc1Oc1ncc(-c3cccnc3)cc12 [compound 216]
	2.7	4.2		CC(C)Oc1cc2c(cn1)Oc1ccc(-c3cccnc3)cc1[C@@]21COCC(N)=N1 [compound 258]
	958	3020		NC1=N[C@]2(CCO1)c1cc(-c3cccnc3F)ccc1Oc1c(F)cc(N3CCC(F)(F)CC3)cc12 [compound 162]
	5.9	24.8		CC(C)(C)C#Cc1ccc2c(c1)[C@@]1(COCC(N)=N1)c1cc(-c3ccnc(F)c3)cnc1O2 [compound 219]

IC50 [1, 3] [nM]	IC50 [2] [nM]	IC50 [1, 4] [nM]	IC50 [1, 5] [nM]	Structure (SMILES)
	5.4	25.1		CC(C)(C)C#Cc1ccc2c(c1)[C@@]1(COCC(N)=N1)c1cc(C#CC(C)(C)C)cnc1O2 [Example 53, (S)-3,7-bis(3,3-dimethylbut-1-ynyl)-2′,6′-dihydrospiro[chromeno[2,3-b]pyridine-5,3′-[1,4]oxazin]-5′-amine]
86.2	211			NC1=N[C@]2(COC1)c1cc(-c3cccnc3F)ccc1Oc1c(F)cc(N3CCOCC3)cc12 [35B]
1	0.5			NC1=N[C@@]2(COC1)c1cc(-c3cncc(F)c3)ccc1Oc1cnc(-c3ccnc(F)c3)cc12 [compound 113]
	0.4	0.3		CC(C)(C)C#Cc1cnc2c(c1)[C@]1(COCC(N)=N1)c1cc(-c3cccnc3)ccc1O2 [Example 52, (S)-3-(3,3-dimethylbut-1-ynyl)-7-(pyridin-3-yl)-2′,6′-dihydrospiro[chromeno[2,3-b]pyridine-5,3′-[1,4]oxazin]-5′-amine]
	0.3	0.7		NC1=N[C@@]2(CCO1)c1cc(-c3cncc(F)c3)ccc1Oc1c2cc(C2=CCOCC2)nc1F [compound 228]
	4	11		NC1=N[C@@]2(CCS1)c1cc(-c3cccnc3F)ccc1Oc1ncc(C3=CCCOC3)cc12 [compound 272]
0.6	0.4			NC1=N[C@@]2(COC1)c1cc(-c3cnccc3F)ccc1Oc1cnc(-c3ccnc(F)c3)cc12 [compound 118]
64.1	110			CC(C)(F)COc1cc(F)c2c(c1)[C@@]1(COCC(N)=N1)c1cc(-c3cccnc3F)ccc1O2 [37B]
	49.8	119		COc1nc(-c2cccnc2)cc2c1Oc1ccc(-c3cccnc3F)cc1C21CCOC(N)=N1 (centres unmarked) [compound 221]
	1280	452		NC1=N[C@]2(CO[C@H]1C1CCCCC1)c1cc(-c3cccnc3F)ccc1Oc1cnc(Cl)cc12 (racemic) [Example 56B, (3′R,6′S)-3-chloro-6′-cyclohexyl-7-(2-fluoropyridin-3-yl)-2′,6′-dihydrospiro[chromeno[2,3-c]pyridine-5,3′-[1,4]oxazin]-5′-amine]
101	39.7			NC1=N[C@@]2(COC1)c1cc(-c3cccnc3F)ccc1Oc1c(F)cc(N3CC[C@@H](F)C3)cc12 [compound 85]
	541	982		N#Cc1cccc(-c2ccc3c(c2)[C@]2(CCOC(N)=N2)c2cc(C4=CCCOC4)nc(F)c2O3)c1 [compound 224]
	147	110		NC1=N[C@]2(CCO1)c1cc(-c3cccnc3F)ccc1Oc1c(F)cc(-c3cccnc3)cc12 [compound 167]
35.4	13.2			NC1=N[C@@]2(CCO1)c1cc(-c3cccnc3F)ccc1Oc1cnc(C3CCOCC3)cc12 [compound 144]
393	941			CC(C)(F)COc1cc(F)c2c(c1)[C@@]1(CCOC(N)=N1)c1cc(-c3cccnc3)ccc1O2 [compound 158]
	3070	3400		NC1=N[C@]2(CCO1)c1cc(-c3cccnc3F)ccc1Oc1c(F)cc(C3=CCOCC3)cc12 [compound 169]
	90.8		205	C[C@@H]1OC[C@@]2(N=C1N)c1cc(-c3cccnc3F)ccc1Oc1cnc(Cl)cc12 [compound 210]
12.4	2.2			COc1cc2c(cn1)Oc1ccc(-c3cc(F)ccc3Cl)cc1[C@@]21COCC(N)=N1 [compound 125]
4.1	3.7			NC1=N[C@@]2(COC1)c1cc(-c3cccnc3F)ccc1Oc1cnc([C@@H]3CCCOC3)cc12 [compound 81]
	863	2430		CC(C)(F)COc1cc(F)c2c(c1)[C@@]1(CCSC(N)=N1)c1cc(-c3cccnc3F)ccc1O2 [compound 202]
1.2	17.4			CC(C)(C)COc1cc2c(cn1)Oc1ccc(-c3cccnc3F)cc1[C@@]21COCC(NC=O)=N1 [Example 43, (S)—N-(7-(2-fluoropyridin-3-yl)-3-(neopentyloxy)-2′,6′-dihydrospiro[chromeno[2,3-c]pyridine-5,3′-[1,4]oxazine]-5′-yl)formamide]
